Measurements taken from US9226916B2, “Pyrrolidine derivatives” (HOFFMANN-LA ROCHE INC., priority 2009, dated 2016).

Biological target: T1, recombinant human NK3 receptor (Homo sapiens, UniProt P29371)
T1 construct: expressed in transfected cells; host or cells: HEK293 cells, transient expression; membranes
T1 sequence (P29371 1-465): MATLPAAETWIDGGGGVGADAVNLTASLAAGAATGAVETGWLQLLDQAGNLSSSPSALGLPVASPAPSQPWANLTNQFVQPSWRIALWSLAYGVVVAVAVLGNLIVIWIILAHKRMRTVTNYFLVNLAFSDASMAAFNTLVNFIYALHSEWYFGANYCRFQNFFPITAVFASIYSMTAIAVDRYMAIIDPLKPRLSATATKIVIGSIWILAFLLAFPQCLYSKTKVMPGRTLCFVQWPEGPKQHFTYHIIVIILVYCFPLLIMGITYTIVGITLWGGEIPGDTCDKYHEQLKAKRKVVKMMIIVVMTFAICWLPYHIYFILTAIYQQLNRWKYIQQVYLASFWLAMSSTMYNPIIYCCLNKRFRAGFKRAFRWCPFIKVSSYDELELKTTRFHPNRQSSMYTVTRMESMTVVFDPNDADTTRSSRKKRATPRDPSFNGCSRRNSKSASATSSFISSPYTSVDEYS
Experiment: [3H]SR142801 competition binding assay
Conditions: not given

Point of comparison: `CN(C(=O)Oc1ccccc1)[C@@H]1CN(C(=O)C2CCN(c3ccc(C#N)cn3)CC2)C[C@H]1c1ccc(Cl)cc1` [Example 200, [(3S,4R)-4-(4-Chloro-phenyl)-1-(5′-cyano-3,4,5,6-tetrahydro-2H-[1,2′]bipyridinyl-4-carbonyl)-pyrrolidin-3-yl]-methyl-carbamic acid phenyl ester], Ki 7.2 nM. Against it:
- CN(C(=O)OCCC(F)(F)F)[C@H]1CN(C(=O)C2CCN(C(=O)C3(C)CC3)CC2)C[C@@H]1c1ccc(Cl)c(Cl)c1 (single isomer, unassigned) [Example 29] — 2.1-fold higher, 14.9 nM
- CN(C(=O)Oc1ccc(F)cc1)[C@@H]1CN(C(=O)C2CCN(c3ccc(C#N)nn3)CC2)C[C@H]1c1ccc(Cl)cc1 [Example 140, {(3S,4R)-4-(4-Chloro-phenyl)-1-[1-(6-cyano-pyridazin-3-yl)-piperidine-4-carbonyl]-pyrrolidin-3-yl}-methyl-carbamic acid 4-fluoro-phenyl ester] — 8-fold lower, 0.9 nM
- CN(C(=O)Oc1ccc(F)cc1)[C@@H]1CN(C(=O)C2CCN(C(=O)[C@@H]3CC(=O)N3)CC2)C[C@H]1c1ccc(Cl)cc1 [Example 319, {(3S,4R)-4-(4-Chloro-phenyl)-1-[1-((S)-4-oxo-azetidine-2-carbonyl)-piperidine-4-carbonyl]-pyrrolidin-3-yl}-methyl-carbamic acid 4-fluoro-phenyl ester] — within 1.5-fold, 10.6 nM
- CC(OC(=O)N(C)[C@@H]1CN(C(=O)C2CCN(c3ccc(C#N)cn3)CC2)C[C@H]1c1ccc(Cl)cc1)c1ccc(F)cc1 (stereo partly drawn) [Example 226, [(3S,4R)-4-(4-Chloro-phenyl)-1-(5′-cyano-3,4,5,6-tetrahydro-2H-[1,2′]bipyridinyl-4-carbonyl)-pyrrolidin-3-yl]-methyl-carbamic acid 1-(4-fluoro-phenyl)-ethyl ester] — 11-fold higher, 79.2 nM
- CN(C(=O)Oc1ccc(F)cc1)[C@@H]1CN(C(=O)C2CCN(c3ccc(C(N)=O)cn3)CC2)C[C@H]1c1ccc(Cl)cc1 [Example 196, [(3S,4R)-1-(5′-Carbamoyl-3,4,5,6-tetrahydro-2H-[1,2′]bipyridinyl-4-carbonyl)-4-(4-chloro-phenyl)-pyrrolidin-3-yl]-methyl-carbamic acid 4-fluoro-phenyl ester] — 3.3-fold lower, 2.2 nM
- CCCCOC(=O)N(C)[C@H]1CN(C(=O)C2CCN(CC3CC3)CC2)C[C@@H]1c1ccc(Cl)c(Cl)c1 (racemic) [Example 11, rac-[(3R,4S)-1-(1-Cyclopropylmethyl-piperidine-4-carbonyl)-4-(3,4-dichloro-phenyl)-pyrrolidin-3-yl]-methyl-carbamic acid butyl ester] — 3.8-fold higher, 27.1 nM
- CN(C(=O)Oc1ccc(F)cc1)[C@H]1CN(C(=O)C2CCN(c3ccc(C#N)cn3)CC2)C[C@@H]1c1ccc(Cl)cc1 [Example 122, [(3R,4S)-4-(4-Chloro-phenyl)-1-(5′-cyano-3,4,5,6-tetrahydro-2H-[1,2′]bipyridinyl-4-carbonyl)-pyrrolidin-3-yl]-methyl-carbamic acid 4-fluoro-phenyl ester] — 2.6-fold higher, 19 nM
- CN(C(=O)Oc1ccc(F)c(F)c1)[C@@H]1CN(C(=O)C2CCN(c3ccc(C#N)cn3)CC2)C[C@H]1c1ccc(Cl)cc1 [Example 209, [(3S,4R)-4-(4-Chloro-phenyl)-1-(5′-cyano-3,4,5,6-tetrahydro-2H-[1,2′]bipyridinyl-4-carbonyl)-pyrrolidin-3-yl]-methyl-carbamic acid 3,4-difluoro-phenyl ester] — 9-fold lower, 0.8 nM
- CN(C(=O)Oc1ccc(F)cc1)[C@H]1CN(C(=O)C2CCN(C(=O)C3(C)CC3)CC2)C[C@@H]1c1ccc(Cl)c(Cl)c1 (racemic) [Example 2, rac-{(3R,4S)-4-(3,4-Dichloro-phenyl)-1-[1-(1-methyl-cyclopropanecarbonyl)-piperidine-4-carbonyl]-pyrrolidin-3-yl}-methyl-carbamic acid 4-fluoro-phenyl ester] — 18-fold lower, 0.4 nM
- CN(C(=O)Oc1ccc(F)cc1)[C@@H]1CN(C(=O)C2CCN(C(=O)c3ccc(C(F)(F)F)cn3)CC2)C[C@H]1c1ccc(F)cc1 [Example 290, {(3S,4R)-4-(4-Fluoro-phenyl)-1-[1-(5-trifluoromethyl-pyridine-2-carbonyl)-piperidine-4-carbonyl]-pyrrolidin-3-yl}-methyl-carbamic acid 4-fluoro-phenyl ester] — 14-fold higher, 99.8 nM
- CN(C(=O)O[C@H]1CC[C@H](C(F)(F)F)CC1)[C@@H]1CN(C(=O)C2CCN(c3ccc(C(=O)NC(C)(C)C)cn3)CC2)C[C@H]1c1ccc(Cl)cc1 (racemic) [Example 121, rac-[(3S,4R)-1-(5′-tert-Butylcarbamoyl-3,4,5,6-tetrahydro-2H-[1,2′]bipyridinyl-4-carbonyl)-4-(4-chloro-phenyl)-pyrrolidin-3-yl]-methyl-carbamic acid 4-trifluoromethyl-cyclohexyl ester] — within 1.5-fold, 6.6 nM
- CN(C(=O)O[C@H]1CC[C@H](C(F)(F)F)CC1)[C@@H]1CN(C(=O)C2CCOCC2)C[C@H]1c1ccc(Cl)c(Cl)c1 [Example 161, [(3S,4R)-4-(3,4-Dichloro-phenyl)-1-(tetrahydro-pyran-4-carbonyl)-pyrrolidin-3-yl]-methyl-carbamic acid 4-trifluoromethyl-cyclohexyl ester] — within 1.5-fold, 7.4 nM
- CN(C(=O)Oc1ccc(F)cc1)[C@@H]1CN(C(=O)C2CCN(C(=O)c3ccc(C(F)(F)F)cn3)CC2)C[C@H]1c1ccc(Cl)c(Cl)c1 [Example 279, {(3S,4R)-4-(3,4-Dichloro-phenyl)-1-[1-(5-trifluoromethyl-pyridine-2-carbonyl)-piperidine-4-carbonyl]-pyrrolidin-3-yl}-methyl-carbamic acid 4-fluoro-phenyl ester] — 3.6-fold lower, 2 nM
- CN(C(=O)Oc1ccc(F)cc1)[C@H]1CN(C(=O)C2CCN(c3nncs3)CC2)C[C@@H]1c1ccc(Cl)c(Cl)c1 (racemic) [Example 78, rac-[(3R,4S)-4-(3,4-Dichloro-phenyl)-1-(1-[1,3,4]thiadiazol-2-yl-piperidine-4-carbonyl)-pyrrolidin-3-yl]-methyl-carbamic acid 4-fluoro-phenyl ester] — 4.8-fold lower, 1.5 nM
- CN(C(=O)Oc1cccc(F)c1F)[C@@H]1CN(C(=O)C2CCN(c3ccc(C#N)cn3)CC2)C[C@H]1c1ccc(Cl)cc1 [Example 211, [(3S,4R)-4-(4-Chloro-phenyl)-1-(5′-cyano-3,4,5,6-tetrahydro-2H-[1,2′]bipyridinyl-4-carbonyl)-pyrrolidin-3-yl]-methyl-carbamic acid 2,3-difluoro-phenyl ester] — 3-fold lower, 2.4 nM
- CN(C(=O)Oc1ccc(F)cc1)[C@@H]1CN(C(=O)[C@H]2CC[C@H](O)CC2)C[C@H]1c1ccc(Cl)cc1 [Example 89, [(3S,4R)-4-(4-Chloro-phenyl)-1-(4-hydroxy-cyclohexanecarbonyl)-pyrrolidin-3-yl]-methyl-carbamic acid 4-fluoro-phenyl ester] — 2.8-fold higher, 20.2 nM

Same assay, conditions: hNK-3 receptor affinity; membranes from HEK293 cells transiently expressing recombinant human NK3 receptor; [3H]SR142801; Cheng-Prussoff; read-out: Data Ki

Point of comparison: `CN(C(=O)OCC1(C)CC1)[C@@H]1CN(C(=O)C2CCN(c3ccc(C#N)cn3)CC2)C[C@H]1c1ccc(Cl)cc1` [Example 217, [(3S,4R)-4-(4-Chloro-phenyl)-1-(5′-cyano-3,4,5,6-tetrahydro-2H-[1,2′]bipyridinyl-4-carbonyl)-pyrrolidin-3-yl]-methyl-carbamic acid 1-methyl-cyclopropylmethyl ester], Ki 7.7 nM. Against it:
- CN(C(=O)OCCC1CC1)[C@@H]1CN(C(=O)C2CCN(C(=O)C3(C)CC3)CC2)C[C@H]1c1ccc(Cl)cc1 (stereo in doubt) [Example 64, {(3S,4R)-4-(4-Chloro-phenyl)-1-[1-(1-methyl-cyclopropanecarbonyl)-piperidine-4-carbonyl]-pyrrolidin-3-yl}-methyl-carbamic acid 2-cyclopropyl-ethyl ester] — 2-fold higher, 15.2 nM
- CN(C(=O)Nc1ccc(F)cc1)[C@H]1CN(C(=O)C2CCN(C(=O)C3(C)CC3)CC2)C[C@@H]1c1ccc(Cl)cc1 (racemic) [Example 96, rac-1-{(3R,4S)-4-(4-Chloro-phenyl)-1-[1-(1-methyl-cyclopropanecarbonyl)-piperidine-4-carbonyl]-pyrrolidin-3-yl}-3-(4-fluoro-phenyl)-1-methyl-urea] — 7-fold higher, 53.7 nM
- CN(C(=O)OCC1CC1)[C@@H]1CN(C(=O)C2CCN(c3ccc(C#N)cn3)CC2)C[C@H]1c1ccc(Cl)cc1 [Example 215, [(3S,4R)-4-(4-Chloro-phenyl)-1-(5′-cyano-3,4,5,6-tetrahydro-2H-[1,2′]bipyridinyl-4-carbonyl)-pyrrolidin-3-yl]-methyl-carbamic acid cyclopropylmethyl ester] — within 1.5-fold, 8.4 nM
- CN(CCC1CC1)C(=O)N(C)[C@H]1CN(C(=O)C2CCN(C(=O)C3(C)CC3)CC2)C[C@@H]1c1ccc(Cl)c(Cl)c1 (racemic) [Example 97, rac-1-(2-Cyclopropyl-ethyl)-3-{(3R,4S)-4-(3,4-dichloro-phenyl)-1-[1-(1-methyl-cyclopropanecarbonyl)-piperidine-4-carbonyl]-pyrrolidin-3-yl}-1,3-dimethyl-urea] — 4-fold higher, 31 nM

Same assay, conditions: read-out: Data Ki

For `CN(C(=O)Oc1cc(F)cc(F)c1)[C@@H]1CN(C(=O)C2CCN(c3ccc(C#N)nc3)CC2)C[C@H]1c1ccc(Cl)cc1` [Example 210, [(3S,4R)-4-(4-Chloro-phenyl)-1-(6′-cyano-3,4,5,6-tetrahydro-2H-[1,3]bipyridinyl-4-carbonyl)-pyrrolidin-3-yl]-methyl-carbamic acid 3,5-difluoro-phenyl ester], the Ki was 4.6 nM.
